This note sets out measurements from US20190110476A1, “NOVEL ISOTHIAZOLAMIDES, PROCESSES FOR THEIR PREPARATION AND THEIR USE AS FUNGICIDES” (priority 2014, published 2019).

Structures are written as SMILES. Marks after values point to notes of the source that are not given here.

The nature of one data set: Measurement of LogP values by HPLC on reversed phase columns (EEC directive 79/831 Annex V.A8). In kind it is physicochemical.
Conditions: not given
The procedure, abridged:
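LogP measured by reversed-phase HPLC following EEC directive 79/831 Annex V.A8. Lambda-max taken from UV spectra at 200–400 nm at chromatographic peak maxima; diastereoisomer values listed separately.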
In the case of `COc1ccc(CNc2nsc(C(=O)NCc3cccnc3OC)c2Cl)cc1` [I-1235], the LogP is 3.13[a]. On to `C#Cc1c(NC(=O)C(F)(F)F)nsc1C(=O)NCC1CCCCC1` [I-609], for which the LogP is 3.05[a].

With `COC(=O)c1snc(N=C(c2ccccc2)c2ccccc2)c1Cl` [E-VII-006], the “LogP [a]” value is 4.40^[a]. Turning to `CCn1cc(CNC(=O)c2snc(NCc3ccc(OC)cc3)c2Cl)cn1` [I-1205], the LogP was 2.48[a]. As to `Nc1nsc(C(=O)NCc2ccc(Br)cc2)c1Cl` [I-372], the LogP is 2.39[a]. Same read-out and setting: to `O=C(NCc1ccc(Cl)cc1)c1snc(NC(=O)C(F)F)c1Cl` [I-574] belongs 2.51[a]. Still for that read-out and setting: to `COc1ccc(CNc2nsc(C(=O)NCC3(C)CCCCC3)c2Cl)cc1` [I-079] belongs 4.69[a]; to `Nc1cc(C(=O)N(Cc2cc(Cl)ccc2Br)C2CC2)sn1` [I-1001], 2.84[a]. In the case of `COc1ccc(CNc2nsc(C(=O)N3CCCc4cc(OC)ccc43)c2Cl)cc1` [II-063], the “LogP [a]” value was 3.72^[a].

In the case of `C[C@H](NC(=O)c1snc(N=CN(C)C)c1Cl)C1CCCCC1` [II-025], the “LogP [a]” value is 3.13^[a].

As for `O=C(NCc1ccc(F)cc1F)c1cc(NC(=O)C(F)(F)F)ns1` [I-398], the LogP is 2.58[a].

`Cc1ccc(S(C)=Nc2nsc(C(=O)NCc3c(F)cc(F)cc3F)c2F)cc1` (stereo not drawn) [II-080]: the “LogP [a]” value is 2.63^[a].

Turning to `O=C(NCC1CCCCC1)c1snc(N(Cc2ccccc2)Cc2ccccc2)c1C(F)F` [I-394], the LogP is 5.88[a].

Regarding `COc1ccc(CNc2nsc(C(=O)NCC3CCCCC3)c2Cl)cc1` [I-098], the LogP was 4.20[a]. Same read-out and setting: in the case of `O=CNc1cc(C(=O)NCc2ccc(F)cc2F)sn1` [I-430] it was 1.79[a]. Still for that read-out and setting: to `C[C@H](NC(=O)c1snc(NC2CC2)c1Cl)C1CCCCC1` [I-061] belongs 3.75[a]; to `COc1ccc(CNc2nsc(C(=O)NCC3(O)CCCCC3)c2Cl)cc1` [I-105], 3.09[a]; to `Nc1nsc(C(=O)N(c2cc(F)cc(F)c2)C2CC2)c1Cl` [I-959], 2.48[a]. Same read-out and setting: in the case of `Nc1cc(C(=O)N(Cc2cc(Cl)ccc2F)C2CC2)sn1` [I-999] it was 2.49[a]; in that of `Cc1ccc(F)c(CN(C(=O)c2snc(N)c2Cl)C2CC2)c1` [I-363], 2.80[a]. Turning to `COC(=O)CC(NC(=O)c1snc(Cl)c1Cl)C1CCCCC1` (stereo not drawn) [E-II-030], the “LogP [a]” value is given as 4.03 and the “LogP [b]” value came out at 3.95. Regarding `Nc1nsc(C(=O)NCC2CC=C(F)CC2)c1F` (stereo not drawn) [I-1296], the LogP was 1.69[a].

Take `Nc1cc(C(=O)NCc2ccc(F)cc2)sn1` [I-029]: the LogP was 1.27[a]. Still for that read-out and setting: to `COc1ccc(CNc2nsc(C(=O)NCc3cc(OC)cc(OC)c3)c2Cl)cc1` [I-1328] belongs 3.41[a].

As to `Nc1nsc(C(=O)NCc2c(F)cccc2Cl)c1Cl` [I-132], the LogP is 2.06[a]. The same measure, in the same setting: to `CC(c1cc(Cl)cc(Cl)c1)N(C(=O)c1cc(N(Cc2ccccc2)Cc2ccccc2)ns1)C1CC1` (stereo not drawn) [I-912] belongs 6.54[a]. Consider `COc1ccc(CNc2nsc(C(=O)NC3CCCC(C)C3C)c2Cl)cc1` (stereo not drawn) [I-1210], for which the LogP is 4.46[a]. The same measure, in the same setting: to `Nc1nsc(C(=O)NCc2ccc(Cl)cc2)c1Cl` [I-020] belongs 2.16[a]; to `CC(=O)Nc1nsc(C(=O)N[C@@H](C)C2CCCCC2)c1Cl` [I-097], 2.51[a]. Turning to `C[C@H](NC(=O)c1snc(NS(=O)(=O)c2ccccc2)c1Cl)C1CCCCC1` [II-009], the “LogP [a]” value was 3.75^[a].

In the case of `COc1ccc(CNc2nsc(C(=O)N(Cc3ccc(F)cc3F)C3CC3)c2Cl)c(OC)c1` [I-1012], the LogP was 4.46[a]. As to `COc1ccc(CNc2nsc(C(=O)NCc3ccc(Cl)cc3C)c2Cl)cc1` [I-376], the LogP is 4.20[a]. Turning to `COc1ccc(CNc2nsc(C(=O)OC(C)(C)C)c2Cl)cc1` [E-VII-002], the “LogP [a]” value was 4.74^[a]. For the compound `CC1CCCCC1NC(=O)c1snc(N)c1I` (stereo not drawn) [I-1564], the LogP is 2.14[a].

Regarding `C[C@H](NC(=O)c1snc(NC(=O)c2ccccc2)c1Cl)C1CCCCC1` [I-091], the LogP was 3.64[a]. Same read-out and setting: to `COc1ccc(CNc2nsc(C(=O)NC3C(C(C)C)CCCC3C(C)C)c2Cl)cc1` (stereo not drawn) [I-1219] belongs 6.32[a]. Consider `COc1ccc(CNc2nsc(C(=O)N[C@@H]3CCCC[C@H]3C)c2Cl)cc1` (relative stereo) [I-1551], for which the LogP was 4.39[a]. `CCOC(=O)c1snc(N(Cc2ccccc2)Cc2ccccc2)c1Cl` [E-VII-013]: the “LogP [a]” value is 5.73^[a].

Take `O=CCCNc1nsc(C(=O)NCC2CCCCC2)c1Cl` [I-715]: the LogP was 2.83[a]. On the same count and under the same terms, to `Nc1nsc(C(=O)NCc2ccc(F)cc2C(F)(F)F)c1Cl` [I-324] belongs 2.61[a]; to `CC(=O)Nc1nsc(C(=O)NCc2ccc(C#N)cc2)c1Cl` [I-847], 1.24[a]; to `Nc1nsc(C(=O)NCC2CCCCO2)c1Cl` (stereo not drawn) [I-014], 1.47[a].

Staying with this data set, now noted: HPLC LC-UV, acidic range, 0.1% formic acid in water and acetonitrile as eluent.
As for `Nc1nsc(C(=O)O)c1Br` [E-VIII-015, 3-amino-4-bromo-1,2-thiazole-5-carboxylic acid], the chromatographic logP (as a rule, a lipophilicity value derived from retention on a column) is -0.07.

Assay in another data set: not given
Conditions: not given
Take `Nc1nsc(C(=O)O)c1Br` [E-VIII-015, 3-amino-4-bromo-1,2-thiazole-5-carboxylic acid]: the melting point – broadly, the temperature of the solid-liquid transition – is 164.5 °C.
